According to patent US11053219B2, “Substituted pyridines as TYK2 inhibitors” (FronThera U.S. Pharmaceuticals LLC, priority 2018, dated 2021):
Where two headings read alike, the source gives them in different places.

Key:
TYK2 (JH2 domain) = TYK2 (JH2 domain) (Homo sapiens (Human), UniProt P29597); assay: TYK2 JH2 domain binding assay (DiscoverX KINOMEscan); details: 11-point 3-fold dilution, duplicate
Procedure: (§1) The assay is performed by combining three components: DNA-tagged kinase; immobilized ligand; and a test compound. The ability of the test compound to compete with the immobilized ligand is measured via quantitative PCR of the DNA tag.
(§2) The liganded beads were blocked with excess biotin and washed with blocking buffer (SeaBlock (Pierce), 1% BSA, 0.05% Tween 20, 1 mM DTT) to remove unbound ligand and to reduce non-specific binding. […] Test compounds were prepared as 111× stocks in 100% DMSO. All test compounds were shipped to DiscoverX in DMSO with concentration of 10 mM. Kds were determined using an 11-point 3-fold compound dilution series with three DMSO control points. Each compound was tested in duplicate. […] The compounds were then diluted directly into the assays such that the final concentration of DMSO was 0.9%. All reactions performed in polypropylene 384-well plate. Each was a final volume of 0.02 ml. […] The kinase concentration in the eluates was measured by qPCR.
(§3) The amount of kinase measured by qPCR (Signal; y-axis) is plotted against the corresponding compound concentration in nM in log 10 scale (x-axis). Binding constants (Kds) were calculated with a standard dose-response curve using the Hill equation:
The Hill Slope was set to −1.
Curves were fitted using anon-linear least square fit with the Levenberg-Marquardt algorithm.

[1] = test system: INFα induced pSTAT5 in human PBMC; assay: INFα induced pSTAT5 in human PBMC; assay type: cell-based; details: human PBMC, INFα 5000 units/ml; read-out: p-STAT5 IC50
JAK1 (JH2 domain) = JAK1 (JH2 domain) (Homo sapiens (Human), UniProt P23458); assay: JAK1 JH2 domain binding assay (KINOMEscan)
Procedure: as §1, §2, §3
Similar to the method for TYK2 JH2 binding described above, JAK1 JH2 and JAK2 JH1 domain binding assay was performed using DiscoverX's KINOMEscan™, but with change of kinase domain.

JAK2 (JH1 domain) = JAK2 (JH1 domain) (Homo sapiens (Human), UniProt O60674); assay: JAK2 JH1 domain binding assay (KINOMEscan)
[2] = test system: IL12-induced p-STAT4 in human PBMC; assay: IL-12 induced pSTAT4 in human PBMC; assay type: cell-based; details: human PBMC, IL-12 10 ng/ml; read-out: p-STAT4 IC50
Procedure: Cells were seeded in a round bottom 96-well plate at the concentration of 200,000 cells/well. A 10-point dilution series of test compound (top dose 10 uM, 1:5 dilution) was added to the well using the liquid dispenser (Tecan D300e) and incubated for 1 hour at 37 C. Then human IL-12 recombinant protein (R&D Systems) was added to the well at the final concentration of 10 ng/ml and incubated for 15 minutes at 37 C. Cell lysates were prepared and analyzed by Phospho STAT4 (Tyr693) Kit (Meso Scale Discovery) following manufacturer's protocol.
For calculation of the inhibition rate, the relative pSTAT4 signal of each well=pSTAT4 signal of each well−the average pSTAT4 signal of baseline. The inhibition %=(the average pSTAT4 signal of IL-12 treatment wells−the relative of pSTAT4 signal in each compound containing well)/the average pSTAT4 signal of IL-12 treatment wells*100%

[3] = test system: INFα induced pSTAT3 in human PBMC; assay: INFα induced pSTAT3 in human PBMC; assay type: cell-based; details: human PBMC, INFα 5000 units/ml; read-out: p-STAT3 IC50
Procedure: Fresh Human PBMCs were resuspended in RPMI 1640 medium with 10% FBS. Cells were seeded in a round bottom 96-well plate at the concentration of 200,000 cells/well. A 10-point dilution series of test compound (top dose 10 uM, 1:5 dilution) was added to the well using the liquid dispenser (Tecan D300e) and incubated for 1 hour at 37 C. Then human INFα recombinant protein (R&D Systems) was added to the well at the final concentration of 5000 units/ml and incubated for 15 minutes at 37 C. Cell lysates were prepared and analyzed by Phospho STAT3 (Tyr705) cellular kit (Cisbio) or Phospho STAT5 (Tyr693) Kit (Meso Scale Discovery) following manufacturer's protocol.
For calculation of the inhibition rate, the relative pSTAT signal of each well=pSTAT signal of each well−the average pSTAT signal of baseline. The inhibition %=(the average pSTAT signal of INFα treatment wells−the relative of pSTAT signal in each compound containing well)/the average pSTAT signal of INFα treatment wells*100%
The curve was plotted as the inhibition % (y-axis) vs. compounds concentration (x-axis) and was fitted with log(inhibitor) vs. normalized response—Variable slope by GraphPad Prism7.0.

[4] = KINOMEscan, read-out: JAK1 (JH2 domain) binding Kd

Chain of JAK1 (JH2 domain) (P23458 583-855): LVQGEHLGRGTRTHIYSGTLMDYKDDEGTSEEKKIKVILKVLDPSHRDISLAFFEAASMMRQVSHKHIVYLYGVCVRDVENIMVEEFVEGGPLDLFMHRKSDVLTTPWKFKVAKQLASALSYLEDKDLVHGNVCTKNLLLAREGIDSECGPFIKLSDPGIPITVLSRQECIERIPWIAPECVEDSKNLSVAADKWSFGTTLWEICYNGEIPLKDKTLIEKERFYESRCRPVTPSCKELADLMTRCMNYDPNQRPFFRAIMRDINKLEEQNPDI
Chain of JAK2 (JH1 domain) (O60674 849-1124): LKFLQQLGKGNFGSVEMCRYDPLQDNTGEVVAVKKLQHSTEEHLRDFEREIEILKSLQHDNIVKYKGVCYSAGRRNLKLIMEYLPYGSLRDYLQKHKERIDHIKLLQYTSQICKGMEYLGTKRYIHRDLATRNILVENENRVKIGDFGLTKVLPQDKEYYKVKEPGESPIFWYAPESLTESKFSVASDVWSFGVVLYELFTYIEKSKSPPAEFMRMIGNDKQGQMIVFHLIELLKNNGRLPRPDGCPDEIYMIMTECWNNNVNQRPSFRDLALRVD
Chain of TYK2 (JH2 domain) (P29597 589-875): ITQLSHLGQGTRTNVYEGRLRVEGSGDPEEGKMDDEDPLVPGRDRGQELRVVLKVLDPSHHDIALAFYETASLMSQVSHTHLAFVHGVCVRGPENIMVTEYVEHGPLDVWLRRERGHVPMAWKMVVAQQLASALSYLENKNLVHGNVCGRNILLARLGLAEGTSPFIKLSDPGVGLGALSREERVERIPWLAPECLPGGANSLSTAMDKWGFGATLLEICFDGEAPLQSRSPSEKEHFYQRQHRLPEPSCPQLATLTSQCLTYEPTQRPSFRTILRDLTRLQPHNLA

Structure (SMILES): [2H]C([2H])([2H])NC(=O)c1nnc(NC(=O)N2CC(C)(C)C2)cc1Nc1cccc(-c2ncn(C)n2)c1OC [Example 38]
- Kd (TYK2 (JH2 domain)): ≤ 1 nM
- IC50 [1]: < 100 nM
- Kd (JAK1 (JH2 domain); [4]): < 100 nM
- Kd (JAK2 (JH1 domain)): 1000 to 10000 nM

Structure (SMILES): COc1c(Nc2cc(NC(=O)C3CC3)nc3ncn(C)c(=O)c23)cccc1-c1ncn(C)n1 [Example 39]
- Kd (TYK2 (JH2 domain)): 5 to 10 nM
- IC50 [2]: 100 to 1000 nM
- IC50 [3]: 100 to 1000 nM

Structure (SMILES): [2H]C([2H])([2H])NC(=O)c1nnc(N/C(=N/O)C2CC2)cc1Nc1cccc(-c2ncn(C)n2)c1OC [Example 40]
- Kd (TYK2 (JH2 domain)): ≤ 1 nM
- IC50 [2]: 100 to 1000 nM
- IC50 [3]: 100 to 1000 nM

Structure (SMILES): COc1c(Nc2cc(NC(=O)C3CC3)nc3c2C2=NC(=O)CN2C3)cccc1-c1ncn(C)n1 [Example 41]
- Kd (TYK2 (JH2 domain)): 1 to 5 nM
- IC50 [2]: 1000 to 10000 nM
- IC50 [3]: 1000 to 10000 nM

Structure (SMILES): [2H]C([2H])([2H])NC(=O)c1c(Nc2cccc(-c3nnn(C)n3)c2OC)cc(NC(=O)C2CC2)nc1F [Example 42]
- Kd (TYK2 (JH2 domain)): 1 to 5 nM
- IC50 [2]: 100 to 1000 nM
- IC50 [3]: 1000 to 10000 nM

Structure (SMILES): COc1c(Nc2cc(NC(=O)C3CC3)nc3c2C(=O)NC3)cccc1-c1ncn(C)n1 [Example 43]
- Kd (TYK2 (JH2 domain)): 5 to 10 nM
- IC50 [2]: > 10000 nM
- IC50 [3]: 1000 to 10000 nM

Structure (SMILES): COc1c(Nc2cc(NC(=O)C3CC3)nnc2C(=O)C(F)F)cccc1-c1ncn(C)n1 [Example 44]
- Kd (TYK2 (JH2 domain)): 1 to 5 nM
- IC50 [2]: 100 to 1000 nM
- IC50 [3]: 1000 to 10000 nM

Structure (SMILES): COc1c(Nc2cc(NC(=O)C3CC3)nc3cn(C)nc23)cccc1-c1ncn(C)n1 [Example 55]
- Kd (TYK2 (JH2 domain)): 1 to 5 nM
- IC50 [2]: 100 to 1000 nM
- IC50 [3]: 100 to 1000 nM

Structure (SMILES): [2H]C([2H])([2H])NC(=O)c1nnc(N2CCCC2=O)cc1Nc1cccc(-c2ncn(C)n2)c1OC [Example 56]
- Kd (TYK2 (JH2 domain)): 1 to 5 nM
- IC50 [2]: 100 to 1000 nM
- IC50 [3]: 1000 to 10000 nM

Structure (SMILES): [2H]C([2H])([2H])NC(=O)c1nnc(N2CC(F)(F)C2=O)cc1Nc1cccc(-c2ncn(C)n2)c1OC [Example 57]
- Kd (TYK2 (JH2 domain)): 1 to 5 nM
- IC50 [2]: 1000 to 10000 nM
- IC50 [3]: 1000 to 10000 nM

Structure (SMILES): CNC(=O)c1nnc(N2CCCC2=O)cc1Nc1cccc(-c2ncn(C)n2)c1OC [Example 59]
- Kd (TYK2 (JH2 domain)): 1 to 5 nM
- IC50 [2]: 1000 to 10000 nM
- IC50 [3]: 1000 to 10000 nM

Structure (SMILES): [2H]C([2H])([2H])NC(=O)c1nnc(N2CCOC2=O)cc1Nc1cccc(-c2ncn(C)n2)c1OC [Example 60]
- Kd (TYK2 (JH2 domain)): 1 to 5 nM
- IC50 [2]: > 10000 nM
- IC50 [3]: > 10000 nM

Structure (SMILES): [2H]C([2H])([2H])NC(=O)c1nnc(N2CCC(C#N)(C3CC3)C2=O)cc1Nc1cccc(-c2ncn(C)n2)c1OC (stereo not shown) [Example 61]
- Kd (TYK2 (JH2 domain)): 1 to 5 nM
- IC50 [2]: 1000 to 10000 nM
- IC50 [3]: 1000 to 10000 nM

Structure (SMILES): [2H]C([2H])([2H])NC(=O)c1nnc(N2CC(C)(C)C2)cc1Nc1cccc(-c2ncn(C)n2)c1OC [Example 62]
- Kd (TYK2 (JH2 domain)): 5 to 10 nM
- IC50 [2]: 1000 to 10000 nM
- IC50 [3]: 1000 to 10000 nM

Structure (SMILES): [2H]C([2H])([2H])NC(=O)c1nnc(-n2ccn(C)c2=O)cc1Nc1cccc(-c2ncn(C)n2)c1OC [Example 63]
- Kd (TYK2 (JH2 domain)): ≤ 1 nM
- IC50 [2]: 100 to 1000 nM
- IC50 [3]: 100 to 1000 nM

Structure (SMILES): [2H]C([2H])([2H])NC(=O)c1nnc(N2CCC(C)C2=O)cc1Nc1cccc(-c2ncn(C)n2)c1OC (stereo not shown) [Example 64]
- Kd (TYK2 (JH2 domain)): ≤ 1 nM
- IC50 [2]: 100 to 1000 nM
- IC50 [3]: 100 to 1000 nM

Structure (SMILES): [2H]C([2H])([2H])NC(=O)c1nnc(N2CCN(CC(F)(F)F)C2=O)cc1Nc1cccc(-c2ncn(C)n2)c1OC [Example 67]
- Kd (TYK2 (JH2 domain)): ≤ 1 nM
- IC50 [2]: < 100 nM
- IC50 [3]: 100 to 1000 nM

Structure (SMILES): [2H]C([2H])([2H])NC(=O)c1nnc(N2CCN(CC3CC3)C2=O)cc1Nc1cccc(-c2ncn(C)n2)c1OC [Example 68]
- Kd (TYK2 (JH2 domain)): ≤ 1 nM
- IC50 [2]: < 100 nM
- IC50 [3]: < 100 nM

Structure (SMILES): [2H]C([2H])([2H])NC(=O)c1nnc(N2CCN(CC#N)C2=O)cc1Nc1cccc(-c2ncn(C)n2)c1OC [Example 69]
- Kd (TYK2 (JH2 domain)): ≤ 1 nM
- IC50 [2]: < 100 nM
- IC50 [3]: < 100 nM

Structure (SMILES): [2H]C([2H])([2H])NC(=O)c1nnc(N2CCN(CC3CCOC3)C2=O)cc1Nc1cccc(-c2ncn(C)n2)c1OC (stereo not shown) [Example 71]
- Kd (TYK2 (JH2 domain)): ≤ 1 nM
- IC50 [2]: 100 to 1000 nM
- IC50 [3]: 100 to 1000 nM

Structure (SMILES): [2H]C([2H])([2H])NC(=O)c1nnc(N2CCN(CC3(C)COC3)C2=O)cc1Nc1cccc(-c2ncn(C)n2)c1OC [Example 72]
- Kd (TYK2 (JH2 domain)): ≤ 1 nM
- IC50 [2]: < 100 nM
- IC50 [3]: 100 to 1000 nM

Structure (SMILES): [2H]C([2H])([2H])NC(=O)c1nnc(N2CCN(CC3CCCO3)C2=O)cc1Nc1cccc(-c2ncn(C)n2)c1OC (stereo not shown) [Example 74]
- Kd (TYK2 (JH2 domain)): ≤ 1 nM
- IC50 [2]: < 100 nM
- IC50 [3]: < 100 nM

Structure (SMILES): [2H]C([2H])([2H])NC(=O)c1nnc(N2CCN(c3ccccc3)C2=O)cc1Nc1cccc(-c2ncn(C)n2)c1OC [Example 77]
- Kd (TYK2 (JH2 domain)): 1 to 5 nM
- IC50 [2]: 100 to 1000 nM
- IC50 [3]: 1000 to 10000 nM

Structure (SMILES): [2H]C([2H])([2H])NC(=O)c1nnc(N2CCN(C3COC3)C2=O)cc1Nc1cccc(-c2ncn(C)n2)c1OC [Example 79]
- Kd (TYK2 (JH2 domain)): ≤ 1 nM
- IC50 [2]: 100 to 1000 nM
- IC50 [3]: 100 to 1000 nM

Structure (SMILES): [2H]C([2H])([2H])NC(=O)c1nnc(N2CCN(C3CCOC3)C2=O)cc1Nc1cccc(-c2ncn(C)n2)c1OC (stereo not shown) [Example 80]
- Kd (TYK2 (JH2 domain)): ≤ 1 nM
- IC50 [2]: < 100 nM
- IC50 [3]: < 100 nM

Structure (SMILES): [2H]C([2H])([2H])NC(=O)c1nnc(N2CCN(C(C)C3CC3)C2=O)cc1Nc1cccc(-c2ncn(C)n2)c1OC (stereo not shown) [Example 82]
- Kd (TYK2 (JH2 domain)): ≤ 1 nM
- IC50 [2]: < 100 nM
- IC50 [3]: < 100 nM

Structure (SMILES): [2H]C([2H])([2H])NC(=O)c1nnc(N2CCN(C(C)C#C)C2=O)cc1Nc1cccc(-c2ncn(C)n2)c1OC (stereo not shown) [Example 84]
- Kd (TYK2 (JH2 domain)): ≤ 1 nM
- IC50 [2]: < 100 nM
- IC50 [3]: < 100 nM

Structure (SMILES): [2H]C([2H])([2H])NC(=O)c1nnc(N2CCN(C3CCOCC3)C2=O)cc1Nc1cccc(-c2ncn(C)n2)c1OC [Example 86]
- Kd (TYK2 (JH2 domain)): ≤ 1 nM
- IC50 [2]: < 100 nM
- IC50 [3]: 100 to 1000 nM

Structure (SMILES): [2H]C([2H])([2H])NC(=O)c1nnc(N2CCN(C(C3CC3)C(F)(F)F)C2=O)cc1Nc1cccc(-c2ncn(C)n2)c1OC (stereo not shown) [Example 87]
- Kd (TYK2 (JH2 domain)): ≤ 1 nM
- IC50 [2]: < 100 nM
- IC50 [3]: 100 to 1000 nM

Structure (SMILES): [2H]C([2H])([2H])NC(=O)c1nnc(N2CCN(C(C)C)C2=O)cc1Nc1nccc(-c2ncn(C)n2)c1OC [Example 147, 6-(3-isopropyl-2-oxo-imidazolidin-1-yl)-4-[[3-methoxy-4-(1-methyl-1,2,4-triazol-3-yl)-2-pyridyl]amino]-N-(trideuteriomethyl)pyridazine-3-carboxamide]
- Kd (TYK2 (JH2 domain)): ≤ 1 nM
- IC50 [1]: < 100 nM
- Kd (JAK1 (JH2 domain); [4]): < 100 nM
- Kd (JAK2 (JH1 domain)): > 10000 nM

Structure (SMILES): CC(C)(O)c1ccc(Nc2cc(Nc3ncccc3S(C)(=O)=O)c(C(=O)C3CC3)cn2)nc1F [Example 159]
- Kd (TYK2 (JH2 domain)): ≤ 1 nM
- IC50 [1]: < 100 nM
- Kd (JAK1 (JH2 domain); [4]): < 100 nM
- Kd (JAK2 (JH1 domain)): 1000 to 10000 nM

Structure (SMILES): CCC(=O)c1cnc(NC(=O)C2CC2)cc1Nc1nccc(-c2ncn(C)n2)c1OC [Example 163]
- Kd (TYK2 (JH2 domain)): ≤ 1 nM
- IC50 [1]: < 100 nM
- Kd (JAK1 (JH2 domain)): < 100 nM
- Kd (JAK2 (JH1 domain)): 100 to 1000 nM

Structure (SMILES): COc1c(-c2ncn(C)n2)ccnc1Nc1cc(NC(=O)C2CC2)ncc1C(=O)C1CC1 [Example 166]
- IC50 [1]: < 100 nM
- Kd (JAK1 (JH2 domain); [4]): < 100 nM
- Kd (JAK2 (JH1 domain)): 1000 to 10000 nM
